Like-named read-outs stand apart in the source and are kept apart here.
Assays:
[1] = target: T1, human α1A adrenergic receptor (Homo sapiens, UniProt P35348); experiment: Test Example 4: human α1A adrenergic receptor agonist activity (Ca flux, Fura-2, transfected HEK293 cells); assay type: cell-based; conditions: for Emax: HEK293, read-out: α1A receptor I.A.; for α1A receptor I.A.: maximum response to norepinephrine taken as 100%
T1 construct: expressed in transfected cells; host or cells: HEK293 cells, pcDNA3.1(−), hygromycin B selection
T1 sequence (P35348 1-466): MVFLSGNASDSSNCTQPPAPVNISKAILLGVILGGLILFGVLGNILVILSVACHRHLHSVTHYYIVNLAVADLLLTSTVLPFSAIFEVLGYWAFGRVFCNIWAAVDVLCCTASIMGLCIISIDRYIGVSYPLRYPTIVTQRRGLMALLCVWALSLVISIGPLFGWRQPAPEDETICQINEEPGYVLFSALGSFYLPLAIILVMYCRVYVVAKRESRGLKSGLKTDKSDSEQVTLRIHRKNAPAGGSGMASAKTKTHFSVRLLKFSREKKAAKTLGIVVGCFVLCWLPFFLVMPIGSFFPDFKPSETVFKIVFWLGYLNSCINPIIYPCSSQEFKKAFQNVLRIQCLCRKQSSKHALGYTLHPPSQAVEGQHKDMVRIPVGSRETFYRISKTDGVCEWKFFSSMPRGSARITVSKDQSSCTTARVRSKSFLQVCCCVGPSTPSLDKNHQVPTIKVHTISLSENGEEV
Description: Measurement of Human α1A Adrenergic Receptor Agonist Activity
The measurement of human α1A adrenergic receptor agonist activity is carried out using HEK293 cells transfected with pcDNA3.1(−) (manufactured by Invitrogen, Inc.) to which human α1A gene has been inserted. These cells are cultured in DMEM medium containing 10% fetal bovine serum, 400 μg/ml hygromycin B (manufactured by Gibco BRL), 100 U/ml penicillin and 100 μg/ml streptomycin. […] The cells are loaded in a CO2 incubator for 30 minutes, and then are washed twice with the Assay Buffer to remove excess Fura-2AM. The cells are centrifuged, and then are prepared into a solution at 5×10^6 cells/ml with the Assay Buffer. Subsequently, the cells are dispensed on a 96-well plate (manufactured by Corning, Inc.) at a volume of 80 μl/well, and the plate is used as a cell plate. […] Subsequently, measurement of fluorescence intensity (excitation wavelength 340 nm and 380 nm, measurement wavelength 500 nm) is initiated at an interval of 2 seconds. After making measurements for about 30 seconds, 20 μl of the test sample from the sample plate is added to the cell plate, and measurements are further continued for 270 seconds. The Ca flux resulting from the test compound is calculated utilizing the difference between the maximum value of fluorescence intensity ratio at the wavelengths 340 nm and 380 nm after the addition of the test compound, and the fluorescence intensity ratio before the addition of the test compound, as the peak height.

[2] = target: T2, human β3 adrenergic receptor (Homo sapiens, UniProt P13945); experiment: Test Example 1-B: human β3 adrenergic receptor agonist activity (cAMP-Screen kit, transfected CHO cells, 96-well); assay type: cell-based; conditions: for Emax: CHO, read-out: β3 receptor I.A.; for EC50: Table 2, Test Example 1-B
T2 construct: the full length human β3 gene is obtained from a human genomic library; expressed in transfected cells; host or cells: CHO (Chinese Hamster Ovary) cells, pcDNA3, geneticin selection
T2 sequence (P13945 whole entry): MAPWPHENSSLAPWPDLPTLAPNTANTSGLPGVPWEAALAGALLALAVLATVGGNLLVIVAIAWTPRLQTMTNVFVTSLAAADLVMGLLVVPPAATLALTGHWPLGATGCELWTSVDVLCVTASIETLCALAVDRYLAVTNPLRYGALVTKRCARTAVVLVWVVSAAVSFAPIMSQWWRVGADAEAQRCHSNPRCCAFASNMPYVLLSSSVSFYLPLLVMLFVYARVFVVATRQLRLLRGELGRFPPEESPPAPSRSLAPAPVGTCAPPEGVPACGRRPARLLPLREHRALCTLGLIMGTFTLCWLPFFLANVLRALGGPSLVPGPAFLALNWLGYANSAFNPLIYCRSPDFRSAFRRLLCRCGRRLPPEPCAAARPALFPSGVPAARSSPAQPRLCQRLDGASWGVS
Description: Measurement of Human β3 Adrenergic Receptor Agonist Activity
(§1) The measurement of human β3 adrenergic receptor agonist activity is carried out using CHO (Chinese Hamster Ovary) cells transfected with pcDNA3 (manufactured by Invitrogen, Inc.) to which human β3 gene has been inserted. […] This human β3 cDNA fragment is used as a probe, and the full length human β3 gene is obtained from a human genomic library (manufactured by Clontech Laboratories, Inc.). The above cells are cultured in Ham's F-12 medium containing 10% fetal bovine serum and 400 μg/ml geneticin (manufactured by Invitrogen, Inc.). These cells are seeded on a 96-well plate to a concentration of 2×10^4 cells/well, and after being cultured for about 20 hours, the cells are left to stand in 80 μL of serum-free Ham's F-12 medium for 15 minutes. A test compound is initially dissolved in DMSO, and then is diluted stepwise with Ham's F-12 containing 100 mmol/L HEPES and 1 mmol/L isobutylmethylxanthine. 20 μL of the dilution is added to the cells. After the cells are cultured for 30 minutes, the medium is removed. 0.3. ml of the Assay/lysis Buffer included in cAMP-Screen kit (manufactured by Applied Biosystems, Inc.) is added to the cells, and the cells are incubated at 37° C. for 30 minutes. The resulting cell lysate is subjected to quantification of cAMP with the cAMP-Screen kit.

[3] = target: T3, human β2 adrenergic receptor (Homo sapiens, UniProt P07550); experiment: Test Example 3-B: human β2 adrenergic receptor agonist activity (method of Test Example 1-B); assay type: cell-based; conditions: for β2 receptor EC50: Table 2, Test Example 3-B; for Emax: read-out: β2 receptor I.A.
T3 construct: expressed in transfected cells; host or cells: CHO (Chinese Hamster Ovary) cells, pcDNA3
T3 sequence (P07550 whole entry): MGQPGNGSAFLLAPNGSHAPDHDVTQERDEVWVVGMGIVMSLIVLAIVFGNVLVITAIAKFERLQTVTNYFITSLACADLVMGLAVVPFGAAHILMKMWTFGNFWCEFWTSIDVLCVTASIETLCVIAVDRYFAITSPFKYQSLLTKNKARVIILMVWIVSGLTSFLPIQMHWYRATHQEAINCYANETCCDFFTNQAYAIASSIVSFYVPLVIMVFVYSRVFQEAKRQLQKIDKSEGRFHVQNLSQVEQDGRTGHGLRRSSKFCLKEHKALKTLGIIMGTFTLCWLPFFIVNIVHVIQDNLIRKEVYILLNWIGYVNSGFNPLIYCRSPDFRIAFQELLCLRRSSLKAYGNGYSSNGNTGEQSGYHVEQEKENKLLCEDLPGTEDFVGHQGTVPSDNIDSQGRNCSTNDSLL
Description: [Worded in the source for another target; this target is reported under the same test.] as §1, with “kit. […] Measurement of Human β2 Adrenergic Receptor Agonist Activity” for “kit.”

[4] = tested on: urinary bladder smooth muscle isolated from common marmoset; experiment: Test Example 7: relaxant activity on urinary bladder smooth muscle isolated from common marmoset; conditions: KCl 40 mmol/L contraction, papaverine 10^−4 mol/L relaxation taken as 100%
Description: Common marmosets are (CLEA Japan, Inc.) exsanguinated to death, and then are subjected to laparotomy to isolate the urinary bladder therefrom. […] The strips are applied a resting tension of 1 g, and are equilibrated for at least 30 minutes. After the resting tension of the strips have been equilibrated, KCl at a final concentration of 40 mmol/L is repeatedly added to the organ bath, and it is confirmed that contraction due to KCl becomes almost constant. […] When the relaxation response at the maximum concentration of the test compound is completed, papaverine at a final concentration of 10^−4 mol/L is added, and the maximum relaxation response of each strip is determined.

[5] = Table 2, Test Example 4, read-out: α1A receptor EC50
[6] = Table 1, Test Example 4, read-out: α1A receptor EC50

| Compound | EC50 [1] [nM] | Emax [1] [%] | Emax [2] [%] | EC50 [2] [nM] | β2 receptor EC50 [3] | Emax [3] [%] | α1A receptor I.A. ([1]; Table 2) [%] | EC50 [1, 5] [nM] | EC50 [1, 6] [nM] | relaxant activity (%) 10^−4 M [4] [%] | relaxant activity (%) 10^−5 M [4] [%] | EC50 ([1]; read-out: α1A receptor EC50, Table 2, Test Example 4) [nM] |
| --- | --- | --- | --- | --- | --- | --- | --- | --- | --- | --- | --- | --- |
| CS(=O)(=O)Nc1cccc([C@@H](O)CNCCOc2ccc3c(C(F)(F)F)n[nH]c3c2)c1 [Example 4, (R)-N-(3-(1-hydroxy-2-(2-(3-trifluoromethylindazol-6-yloxy)ethylamino)ethyl)phenyl)methanesulfonamide] | 892 | 40 | 78 | 49 | a) | 2.4 | – | – | – | 73.5 | 40.8 | – |
| CC(C)c1n[nH]c2cc(OCCNC[C@H](O)c3cccc(NS(C)(=O)=O)c3)ccc12 [Example 1, (R)-N-(3-(1-hydroxy-2-(2-(3-isopropylindazol-6-yloxy)ethylamino)ethyl)phenyl)methanesulfonamide] | > 2000 | 8 | 74 | 17 | a) | 6.7 | – | – | – | 68.6 | 49.9 | – |
| CCc1n[nH]c2cc(OCCNC[C@H](O)c3cccc(NS(C)(=O)=O)c3)ccc12 [Example 2, (R)-N-(3-(1-hydroxy-2-(2-(3-ethylindazol-6-yloxy)ethylamino)ethyl)phenyl)methanesulfonamide] | 855 | 24 | 76 | 17 | a) | 4.3 | 24 | – | – | 57.8 | 43.4 | 855 |
| CCCc1n[nH]c2cc(OCCNC[C@H](O)c3cccc(NS(C)(=O)=O)c3)ccc12 [Example 3, (R)-N-(3-(1-hydroxy-2-(2-(3-propylindazol-6-yloxy)ethylamino)ethyl)phenyl)methanesulfonamide] | – | 0 | – | – | a) | 2 | 0 | > 2000 | > 2000 | – | – | – |
| CCc1n[nH]c2cc(OCCNC[C@H](O)c3ccc(F)c(NS(C)(=O)=O)c3)ccc12 [Example 8, (R)-N-(5-(2-(2-(3-ethylindazol-6-yloxy)ethylamino)-1-hydroxyethyl)-2-fluorophenyl)methanesulfonamide] | – | 5 | 61 | 17 | a) | 11 | – | > 2000 | – | – | – | – |
| COCc1n[nH]c2cc(OCCNC[C@H](O)c3cccc(NS(C)(=O)=O)c3)ccc12 [Example 6, (R)-N-(3-(1-hydroxy-2-(2-(3-methoxymethylindazol-6-yloxy)ethylamino)ethyl)phenyl)methanesulfonamide] | – | 20 | – | – | – | – | – | – | > 2000 | 42.6 | 35.3 | – |
| CN(C)C(=O)CCc1n[nH]c2cc(OCCNC[C@H](O)c3cccc(NS(C)(=O)=O)c3)ccc12 [Example 5, (R)-3-(6-(2-(2-hydroxy-2-(3-(methylsulfonamido)phenyl)ethylamino)ethoxy)-indazol-3-yl)-N,N-dimethylpropanamide] | – | 47 | – | – | a) | 5.4 | 47 | – | 836 | 56.3 | 50.9 | – |

The next lines start with results.

| EC50 [1] [nM] | Emax [1] [%] | Emax [2] [%] | EC50 [2] [nM] | β2 receptor EC50 [3] | Emax [3] [%] | α1A receptor I.A. ([1]; Table 2) [%] | EC50 [1, 5] [nM] | EC50 [1, 6] [nM] | Compound | relaxant activity (%) 10^−4 M [4] [%] | relaxant activity (%) 10^−5 M [4] [%] | EC50 ([1]; read-out: α1A receptor EC50, Table 2, Test Example 4) [nM] |
| --- | --- | --- | --- | --- | --- | --- | --- | --- | --- | --- | --- | --- |
| – | 11 | 58 | 29 | a) | 8 | – | > 2000 | – | CCc1n[nH]c2cc(OCCNC[C@H](O)c3ccc(Cl)c(NS(C)(=O)=O)c3)ccc12 [Example 9, (R)-N-(2-chloro-5-(2-(2-(3-ethylindazol-6-yloxy)ethylamino)-1-hydroxyethyl)phenyl)methanesulfonamide] | – | – | – |
| – | 0 | 65 | 15 | a) | 5 | – | > 2000 | – | CS(=O)(=O)Nc1cc([C@@H](O)CNCCOc2ccc3c(C(F)(F)F)n[nH]c3c2)ccc1Cl [Example 11, (R)-N-(2-chloro-5-(1-hydroxy-2-(2-(3-(trifluoromethyl)indazol-6-yloxy)ethylamino)ethyl)phenyl)methanesulfonamide] | 39.2 | 20.1 | – |
| – | 0 | 75 | 17 | a) | 3 | – | > 2000 | – | COc1n[nH]c2cc(OCCNC[C@H](O)c3cccc(NS(=O)(=O)c4ccccc4)c3)ccc12 [Example 16, (R)-N-(3-(1-hydroxy-2-(2-(3-methoxyindazol-6-yloxy)ethylamino)ethyl)phenyl)benzenesulfonamide] | – | – | – |

— patent publication US8008506B2, “Indazole compounds” (priority 2008, dated 2011)
